Among the test systems are SK-MEL-2; LOX IMVI; OVCAR-8; M14; HOP-18; SF-539; SK-MEL-5; A549; HT-29; SK-MEL-28; UACC-62; NCI-H23; OVCAR-5; RPMI-8226; NCI-H460; SF-295; SW-620; A498; Hs-578T; DU-145.
Common to all, as to test: growth of human tumour cells (NCI), 48 h

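Where inhibition never reached the appropriate level, the endpoint shown equals the highest concentration tested. Otherwise, values were interpolated linearly from a five-concentration, 48-hour dose response in 96-well plates. Here, GI50 denotes the concentration required for 50% inhibition of growth.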 The source made the active and inactive calls. Rule as the data show it: active = GI50 up to about 1.1 µM and inactive = higher.

Turning to `Oc1cc(-c2ccccc2)c2ccccc2n1`, the GI50 is 72.1 µM (inactive) in the assay on SK-MEL-2; 57.9 µM (inactive) in the assay with LOX IMVI; > 100 µM (inactive) with OVCAR-8; 41.8 µM (inactive) with M14; 23.6 µM (inactive) in the assay on HOP-18; 52.7 µM (inactive) in the assay with SF-539. Moreover, the GI50 in the assay with SK-MEL-5 was 16.6 µM (inactive); with A549 it was 34.4 µM (inactive); in the assay with HT-29, > 100 µM (inactive); with SK-MEL-28, 37.3 µM (inactive); with UACC-62, 48.3 µM (inactive); in the assay on NCI-H23 it was 84.7 µM (inactive). The GI50 was 64.4 µM (inactive) with OVCAR-5; 67.6 µM (inactive) in the assay on RPMI-8226; 41.9 µM (inactive) in the assay on NCI-H460; 87.9 µM (inactive) in the assay with SF-295; > 100 µM (inactive) in the assay with SW-620.

Turning to `COC(=O)/C(C)=C(/CCC1(C)OCCO1)O[Si](C)(C)C`, the GI50 with SK-MEL-2, in the assay with LOX IMVI, in the assay on OVCAR-8, in the assay with M14, in the assay with HOP-18 and in the assay with SF-539 was > 100 µM (inactive) throughout. Also, the GI50 with SK-MEL-5, with A549, in the assay on HT-29, with UACC-62, in the assay on NCI-H23 and with OVCAR-5 was > 100 µM (inactive) in each case. The GI50 in the assay with RPMI-8226 was > 100 µM (inactive); with NCI-H460, 47.1 µM (inactive); with SF-295, > 100 µM (inactive); in the assay on SW-620, > 100 µM (inactive).

For `Cc1ccc(C)c2sc3cc(=O)ccc-3nc12`, the GI50 in the assay on SK-MEL-2 was 53.3 µM (inactive); in the assay with OVCAR-8, 35.2 µM (inactive); with M14 it was 18.2 µM (inactive); with HOP-18 it was > 100 µM (inactive); in the assay with SF-539, 32.2 µM (inactive); in the assay with SK-MEL-5, 16.5 µM (inactive). Further, the GI50 in the assay with A549 was 41.2 µM (inactive); with HT-29, 44 µM (inactive); with SK-MEL-28, 43.4 µM (inactive); with UACC-62 it was 17.5 µM (inactive); in the assay with NCI-H23, 29 µM (inactive); with OVCAR-5, 30.8 µM (inactive). Moreover, the GI50 in the assay on NCI-H460 was 34.2 µM (inactive); with SF-295, 39.1 µM (inactive); in the assay with SW-620, 63.1 µM (inactive).

For `CC(Oc1ccc(Cl)cc1Cl)C(=O)NN1C(=O)CSC1c1ccc(Cl)cc1` (stereo not given), the GI50 was 56.1 µM (inactive) in the assay on SK-MEL-2; 56 µM (inactive) in the assay with LOX IMVI; 46.9 µM (inactive) in the assay with OVCAR-8; 25.2 µM (inactive) with A498; 47.1 µM (inactive) in the assay on M14; 20.5 µM (inactive) with SF-539. The GI50 is 49.7 µM (inactive) with SK-MEL-5; 64.7 µM (inactive) with Hs-578T; 31 µM (inactive) with A549; 70.1 µM (inactive) in the assay with HT-29; 67.3 µM (inactive) in the assay with SK-MEL-28; 43.5 µM (inactive) with UACC-62. Also, the GI50 was 79.8 µM (inactive) in the assay on NCI-H23; > 100 µM (inactive) with OVCAR-5; 35.7 µM (inactive) with RPMI-8226; > 100 µM (inactive) with NCI-H460; 63.5 µM (inactive) in the assay on DU-145; 50.6 µM (inactive) in the assay on SF-295. For the same compound, the GI50 in the assay on SW-620 is > 100 µM (inactive).

Take `COCCOC1=C(Cl)C(=O)c2c(O)ccc(O)c2C1=O`: the GI50 was 5.98 µM (inactive) in the assay with SK-MEL-2; 1.16 µM (inactive) in the assay with LOX IMVI; 1.63 µM (inactive) in the assay with OVCAR-8; 10.4 µM (inactive) in the assay with A498; 1.71 µM (inactive) in the assay on M14; 2.16 µM (inactive) in the assay with SF-539. The GI50 in the assay with SK-MEL-5 is 1.95 µM (inactive); with Hs-578T it was 3.24 µM (inactive); in the assay with A549, 8.34 µM (inactive); with HT-29 it was 2.37 µM (inactive); in the assay on SK-MEL-28, 2.27 µM (inactive); in the assay on UACC-62 it was 4.81 µM (inactive). Besides, the GI50 with NCI-H23 is 2.25 µM (inactive); with OVCAR-5, 6.93 µM (inactive); with RPMI-8226, 0.741 µM (active); in the assay with NCI-H460, 5.52 µM (inactive); with DU-145, 5.26 µM (inactive); in the assay with SF-295 it was 14.8 µM (inactive). Further, the GI50 in the assay with SW-620 is 0.444 µM (active).

Regarding `CC(=O)OC1COC(Nc2nc(NCc3ccccc3)n(C)c(=O)c2N=O)C(OC(C)=O)C1OC(C)=O` (stereo not given), the GI50 with SK-MEL-2, in the assay with LOX IMVI, in the assay on OVCAR-8, in the assay with A498, with M14 and in the assay with SF-539 was > 10 µM (inactive) throughout. Also, the GI50 in the assay on SK-MEL-5, in the assay on Hs-578T, in the assay with A549, with HT-29, with SK-MEL-28 and with UACC-62 was > 10 µM (inactive) throughout. Further, the GI50 in the assay on NCI-H23, with OVCAR-5, in the assay on RPMI-8226, in the assay on NCI-H460, in the assay on DU-145 and in the assay on SF-295 was > 10 µM (inactive) throughout. The GI50 in the assay with SW-620 is > 10 µM (inactive).

Regarding `CCOC(=O)[C@H](CCCNC(=O)OC(C)(C)C)NCc1ccc(OC)c(OC)c1`, the GI50 in the assay on SK-MEL-2, in the assay with LOX IMVI, with OVCAR-8, in the assay on A498, with M14 and in the assay with HOP-18 was > 100 µM (inactive) each time. For the same compound, the GI50 in the assay on SF-539, with SK-MEL-5, in the assay with A549, in the assay on HT-29, in the assay with SK-MEL-28 and with UACC-62 was > 100 µM (inactive) throughout. For the same compound, the GI50 in the assay with NCI-H23, in the assay on OVCAR-5, in the assay on SF-295 and with SW-620 was > 100 µM (inactive) each time.

For the compound `O=C(CC(=O)Nc1ccc(Cl)cc1)NNCC(=O)Nc1nc(-c2ccccc2)cs1`, the GI50 in the assay on LOX IMVI, with OVCAR-8, in the assay on M14, with HOP-18, with SF-539 and in the assay on SK-MEL-5 was > 100 µM (inactive) throughout. Besides, the GI50 in the assay with A549 is > 100 µM (inactive); with HT-29 it was > 100 µM (inactive); in the assay with SK-MEL-28, > 100 µM (inactive); with UACC-62, 47.5 µM (inactive); in the assay on NCI-H23, > 100 µM (inactive); in the assay with RPMI-8226, > 100 µM (inactive). Besides, the GI50 in the assay on NCI-H460, in the assay on SF-295 and in the assay on SW-620 was > 100 µM (inactive) in each case.

`CC1CNC(c2ccc(-c3nc(-c4ccc(C5=NC(C)CN5)cc4)nc(N(C)C)n3)cc2)=N1` (stereo not given): the GI50 with SK-MEL-2 is 2.01 µM (inactive); with LOX IMVI, 1.41 µM (inactive); with OVCAR-8, 2.12 µM (inactive); in the assay with A498, 2.05 µM (inactive); in the assay with M14 it was 3.21 µM (inactive); in the assay on SF-539, 0.855 µM (active). In addition, the GI50 is 3.8 µM (inactive) with SK-MEL-5; 3.21 µM (inactive) in the assay on Hs-578T; 3.02 µM (inactive) with A549; 1.79 µM (inactive) in the assay on HT-29; 2.69 µM (inactive) in the assay with SK-MEL-28; 1.73 µM (inactive) with UACC-62. In addition, the GI50 in the assay on NCI-H23 is 2.39 µM (inactive); in the assay on OVCAR-5, 3.24 µM (inactive); in the assay on RPMI-8226, 3.78 µM (inactive); with NCI-H460 it was 3.27 µM (inactive); in the assay with DU-145, 1.78 µM (inactive); in the assay on SF-295, 4.22 µM (inactive). Also, the GI50 in the assay with SW-620 is 1.17 µM (inactive).

As to `O=c1cnn2c(n1)sc1ccc3ccccc3c12`, the GI50 in the assay on SK-MEL-2 is > 100 µM (inactive); in the assay with LOX IMVI, 76.6 µM (inactive); with OVCAR-8, > 100 µM (inactive); in the assay with M14 it was > 100 µM (inactive); with HOP-18, > 100 µM (inactive); with SF-539 it was > 100 µM (inactive). Besides, the GI50 with SK-MEL-5 is > 100 µM (inactive); with A549, 65.6 µM (inactive); with HT-29, > 100 µM (inactive); with SK-MEL-28, > 100 µM (inactive); in the assay with UACC-62, > 100 µM (inactive); in the assay with NCI-H23, > 100 µM (inactive). The GI50 in the assay with OVCAR-5 is > 100 µM (inactive); with RPMI-8226, > 100 µM (inactive); with NCI-H460, 61.2 µM (inactive); with SF-295 it was > 100 µM (inactive); in the assay with SW-620, > 100 µM (inactive).

As to `Cn1nc(-c2ccccc2)c(C(=O)/C=C/c2ccccc2)c(N2CCCCC2)c1=O`, the GI50 was 11.7 µM (inactive) in the assay on LOX IMVI; 42 µM (inactive) in the assay on OVCAR-8; 47.6 µM (inactive) in the assay on M14; 40.8 µM (inactive) in the assay on HOP-18; 41.5 µM (inactive) in the assay on SF-539; 17.5 µM (inactive) in the assay on SK-MEL-5. For the same compound, the GI50 in the assay with A549 is 9.86 µM (inactive); in the assay on HT-29, 11.7 µM (inactive); in the assay with SK-MEL-28, 14.5 µM (inactive); in the assay with UACC-62 it was 15.9 µM (inactive); in the assay with NCI-H23, 14 µM (inactive); in the assay with RPMI-8226, 4.22 µM (inactive). The GI50 was 7.67 µM (inactive) in the assay on NCI-H460 and 34 µM (inactive) with SW-620.

Turning to `S=C(N/N=C/c1ccccn1)Nc1ccc(Cl)cc1`, the GI50 in the assay on SK-MEL-2 was 2.14 µM (inactive); with LOX IMVI it was 0.06 µM (active); with OVCAR-8, 0.0333 µM (active); in the assay with A498, 4.1 µM (inactive); in the assay on M14 it was 0.0347 µM (active); in the assay on SF-539 it was 0.364 µM (active). Also, the GI50 was 0.11 µM (active) in the assay with SK-MEL-5; 1.85 µM (inactive) with Hs-578T; 0.307 µM (active) with A549; 0.0426 µM (active) with HT-29; 0.413 µM (active) with SK-MEL-28; 0.114 µM (active) in the assay with UACC-62. Moreover, the GI50 was 0.104 µM (active) in the assay with NCI-H23; 0.191 µM (active) in the assay with OVCAR-5; 0.134 µM (active) with RPMI-8226; 0.0635 µM (active) in the assay on NCI-H460; 0.126 µM (active) with DU-145; 0.181 µM (active) in the assay on SF-295. Besides, the GI50 in the assay on SW-620 was 0.0528 µM (active).
